{
  "source": "paper PMC5218480",
  "about": "(PLoS ONE, 2017)",
  "test_system": "MV-4-11 cells",
  "test": "Gene expression microarray analysis (Affymetrix PrimeView) and GSEA",
  "type": "cell-based, human",
  "design": "RFU PODN (11730768_x_at) / Fold change /veh PODN (11730768_x_at) / RFU LINC00158 (11744669_a_at) / Fold change /veh LINC00158 (11744669_a_at) / RFU DUSP10 (11751237_a_at) / Fold change /veh DUSP10 (11751237_a_at) / RFU ID3 (11757404_x_at) / Fold change /veh ID3 (11757404_x_at) / RFU PLEKHG5 (11737974_s_at) / Fold change /veh PLEKHG5 (11737974_s_at) / RFU LRRC4B (11730491_at) / Fold change /veh LRRC4B (11730491_at) / RFU GIMAP4 (11747438_a_at) / Fold change /veh GIMAP4 (11747438_a_at) / RFU KRT8 (11758183_x_at) / Fold change /veh KRT8 (11758183_x_at) / RFU CNN1 (11734310_a_at) / Fold change /veh CNN1 (11734310_a_at) / RFU VPS37D (11726825_at) / Fold change /veh VPS37D (11726825_at) / RFU C10orf10 (11716522_x_at) / Fold change /veh C10orf10 (11716522_x_at) / RFU KIR2DL2 /// KIR2DL4 /// KIR2DL5A /// KIR2DL5B /// KIR2DS1 /// KIR2DS2 /// KIR2DS3 /// KIR2DS4 /// KIR3DL3 /// KIR3DL3 /// KIR3DS1 (11738374_at) / Fold change /veh KIR2DL2 /// KIR2DL4 /// KIR2DL5A /// KIR2DL5B /// KIR2DS1 /// KIR2DS2 /// KIR2DS3 /// KIR2DS4 /// KIR3DL3 /// KIR3DL3 /// KIR3DS1 (11738374_at) / RFU C1QL1 (11718748_at) / Fold change /veh C1QL1 (11718748_at) / RFU TMPRSS4 (11747572_a_at) / Fold change /veh TMPRSS4 (11747572_a_at) / RFU HAMP (11756126_x_at) / Fold change /veh HAMP (11756126_x_at) / RFU RNFT2 (11725882_a_at) / Fold change /veh RNFT2 (11725882_a_at) / RFU NR4A2 (11747474_a_at) / Fold change /veh NR4A2 (11747474_a_at) / RFU ABCC12 (11746883_a_at) / Fold change /veh ABCC12 (11746883_a_at) / RFU TMEM136 (11760407_x_at) / Fold change /veh TMEM136 (11760407_x_at) / RFU CLDN22 /// WWC2 (11732394_at) / Fold change /veh CLDN22 /// WWC2 (11732394_at) / RFU HLA-DPB1 (11760878_x_at) / Fold change /veh HLA-DPB1 (11760878_x_at) / RFU SPINT1 (11716480_a_at) / Fold change /veh SPINT1 (11716480_a_at) / RFU GAP43 (11754022_s_at) / Fold change /veh GAP43 (11754022_s_at) / RFU A4GNT (11735810_at) / Fold change /veh A4GNT (11735810_at) / RFU PRB3 (11715151_x_at) / Fold change /veh PRB3 (11715151_x_at) / RFU TUBB4B (11761932_at) / Fold change /veh TUBB4B (11761932_at) / RFU CAPN14 (11732068_a_at) / Fold change /veh CAPN14 (11732068_a_at) / RFU TMCC2 (11721928_a_at) / Fold change /veh TMCC2 (11721928_a_at) / RFU IRGQ (11745062_a_at) / Fold change /veh IRGQ (11745062_a_at) / RFU FAM174B (11720279_a_at) / Fold change /veh FAM174B (11720279_a_at) / RFU TMPRSS4 (11748680_a_at) / Fold change /veh TMPRSS4 (11748680_a_at) / RFU FAM212B (11763350_a_at) / Fold change /veh FAM212B (11763350_a_at) / RFU PLEKHG5 (11743358_a_at) / Fold change /veh PLEKHG5 (11743358_a_at) / RFU ZSCAN30 (11745921_a_at) / Fold change /veh ZSCAN30 (11745921_a_at) / RFU CMKLR1 (11741424_a_at) / Fold change /veh CMKLR1 (11741424_a_at) / RFU LOC101060620 /// MAPK8IP1 (11723275_at) / Fold change /veh LOC101060620 /// MAPK8IP1 (11723275_at) / RFU SPTSSB (11747773_x_at) / Fold change /veh SPTSSB (11747773_x_at) / RFU PRSS12 (11739890_at) / Fold change /veh PRSS12 (11739890_at) / RFU BIN1 (11741810_x_at) / Fold change /veh BIN1 (11741810_x_at) / RFU WNT11 (11732464_a_at) / Fold change /veh WNT11 (11732464_a_at) / RFU C10orf10 (11716521_a_at) / Fold change /veh C10orf10 (11716521_a_at) / RFU C5orf56 (11738089_at) / Fold change /veh C5orf56 (11738089_at) / RFU CYB561 (11721691_x_at) / Fold change /veh CYB561 (11721691_x_at) / RFU ANKRD19P (11752326_a_at) / Fold change /veh ANKRD19P (11752326_a_at) / RFU OR2T12 /// OR2T33 /// OR2T8 (11738714_s_at) / Fold change /veh OR2T12 /// OR2T33 /// OR2T8 (11738714_s_at) / RFU VCAN (11748164_a_at) / Fold change /veh VCAN (11748164_a_at) / RFU JSRP1 (11732532_at) / Fold change /veh JSRP1 (11732532_at) / RFU KRTAP10-11 (11738290_x_at) / Fold change /veh KRTAP10-11 (11738290_x_at) / RFU MYO3A (11730013_a_at) / Fold change /veh MYO3A (11730013_a_at) / RFU EBF3 (11725865_a_at) / Fold change /veh EBF3 (11725865_a_at) / RFU CAMK2N1 (11719241_x_at) / Fold change /veh CAMK2N1 (11719241_x_at) / RFU C5orf56 (11738088_a_at) / Fold change /veh C5orf56 (11738088_a_at) / RFU OLFML3 (11715873_a_at) / Fold change /veh OLFML3 (11715873_a_at) / RFU LOC100653217 /// NTM (11731650_a_at) / Fold change /veh LOC100653217 /// NTM (11731650_a_at) / RFU MAPK11 (11762145_a_at) / Fold change /veh MAPK11 (11762145_a_at) / RFU FIZ1 (11724087_x_at) / Fold change /veh FIZ1 (11724087_x_at) / RFU OASL (11726364_x_at) / Fold change /veh OASL (11726364_x_at) / RFU SOX15 (11748057_x_at) / Fold change /veh SOX15 (11748057_x_at) / RFU CD79A (11719716_a_at) / Fold change /veh CD79A (11719716_a_at) / RFU HIST1H1D (11736915_at) / Fold change /veh HIST1H1D (11736915_at) / RFU CASKIN2 (11723855_a_at) / Fold change /veh CASKIN2 (11723855_a_at) / RFU LOC730098 (11760151_x_at) / Fold change /veh LOC730098 (11760151_x_at) / RFU OR4N2 (11742367_at) / Fold change /veh OR4N2 (11742367_at) / RFU PRRT2 (11749266_a_at) / Fold change /veh PRRT2 (11749266_a_at) / RFU SNX32 (11753110_a_at) / Fold change /veh SNX32 (11753110_a_at) / RFU CDHR5 (11726645_a_at) / Fold change /veh CDHR5 (11726645_a_at) / RFU RCAN1 (11760418_a_at) / Fold change /veh RCAN1 (11760418_a_at) / RFU FAM167A (11723789_a_at) / Fold change /veh FAM167A (11723789_a_at) / RFU FAM26E (11764081_at) / Fold change /veh FAM26E (11764081_at) / RFU ISYNA1 (11749810_s_at) / Fold change /veh ISYNA1 (11749810_s_at) / RFU ACY1 (11761880_at) / Fold change /veh ACY1 (11761880_at) / RFU 11764098_at / Fold change /veh 11764098_at / RFU SAMD14 (11745864_x_at) / Fold change /veh SAMD14 (11745864_x_at) / RFU NPB (11741838_a_at) / Fold change /veh NPB (11741838_a_at) / RFU TMPRSS6 (11731388_a_at) / Fold change /veh TMPRSS6 (11731388_a_at) / RFU KRTAP10-2 (11738614_at) / Fold change /veh KRTAP10-2 (11738614_at) / RFU ARHGAP8 /// PRR5-ARHGAP8 (11727945_x_at) / Fold change /veh ARHGAP8 /// PRR5-ARHGAP8 (11727945_x_at) / RFU KRTAP5-7 /// NADSYN1 (11734609_at) / Fold change /veh KRTAP5-7 /// NADSYN1 (11734609_at) / RFU RASL12 (11751679_a_at) / Fold change /veh RASL12 (11751679_a_at) / RFU CDKN2B (11736163_a_at) / Fold change /veh CDKN2B (11736163_a_at) / RFU PRF1 (11729649_at) / Fold change /veh PRF1 (11729649_at) / RFU, ZNF638 /// ZNF638-IT1 / Fold change vs veh, ZNF638 /// ZNF638-IT1 / RFU, PANK3 / Fold change vs veh, PANK3 / RFU, SH3YL1 / Fold change vs veh, SH3YL1 / RFU, ZEB2 / Fold change vs veh, ZEB2 / RFU, NRIP1 / Fold change vs veh, NRIP1 / RFU, PTTG1IP / Fold change vs veh, PTTG1IP / RFU, CAPN2 / Fold change vs veh, CAPN2 / RFU, MED14 / Fold change vs veh, MED14 / RFU, SNORA58 / Fold change vs veh, SNORA58 / RFU, C1orf63 / Fold change vs veh, C1orf63 / RFU, LRRFIP1 / Fold change vs veh, LRRFIP1 / RFU, NDUFAF7 / Fold change vs veh, NDUFAF7 / RFU, SLC12A2 / Fold change vs veh, SLC12A2 / RFU, IBTK / Fold change vs veh, IBTK / RFU, ESF1 / Fold change vs veh, ESF1 / Fold change vs veh, TMEM50B / RFU, TAOK1 / Fold change vs veh, TAOK1 / RFU, ACBD3 / Fold change vs veh, ACBD3 / RFU, TMA16 / Fold change vs veh, TMA16 / RFU, RWDD3 / Fold change vs veh, RWDD3 / RFU, BCAT1 / Fold change vs veh, BCAT1 / RFU, EDEM3 / Fold change vs veh, EDEM3 / RFU, TMEM33 / Fold change vs veh, TMEM33 / RFU, WDR75 / Fold change vs veh, WDR75 / RFU, AHCTF1 / Fold change vs veh, AHCTF1 / RFU, TFRC / Fold change vs veh, TFRC / RFU, ZDHHC17 / Fold change vs veh, ZDHHC17 / RFU, NOM1 / Fold change vs veh, NOM1 / RFU, ARL8B / Fold change vs veh, ARL8B / RFU, ZBTB11 / Fold change vs veh, ZBTB11 / RFU, TAMM41 / Fold change vs veh, TAMM41 / RFU, KIAA1704 /// LOC100996395 / Fold change vs veh, KIAA1704 /// LOC100996395 / RFU, ING1 / Fold change vs veh, ING1 / RFU, TRMT61B / Fold change vs veh, TRMT61B / RFU, FUBP3 / Fold change vs veh, FUBP3 / RFU, TP53 / Fold change vs veh, TP53 / RFU, TNKS2 / Fold change vs veh, TNKS2 / RFU, ZFP14 / Fold change vs veh, ZFP14 / RFU, ACTR2 / Fold change vs veh, ACTR2 / RFU, PPP3R1 / Fold change vs veh, PPP3R1 / RFU, PIK3R1 / Fold change vs veh, PIK3R1 / RFU, HNRNPA1 / Fold change vs veh, HNRNPA1 / RFU, RNF170 / Fold change vs veh, RNF170 / RFU, ZNF28 / Fold change vs veh, ZNF28 / RFU, RNGTT / Fold change vs veh, RNGTT / RFU, OGT / Fold change vs veh, OGT / RFU, BRD1 / Fold change vs veh, BRD1 / RFU, MARS / Fold change vs veh, MARS / RFU, ZNF655 / Fold change vs veh, ZNF655 / RFU, FAHD1 / Fold change vs veh, FAHD1 / RFU, BDP1 / Fold change vs veh, BDP1 / RFU, LRRCC1 / Fold change vs veh, LRRCC1 / RFU, ARID1A / Fold change vs veh, ARID1A / RFU, ZNF146 / Fold change vs veh, ZNF146 / RFU, ZNF330 / Fold change vs veh, ZNF330 / RFU, GPN3 / Fold change vs veh, GPN3 / RFU, C9orf123 / Fold change vs veh, C9orf123 / RFU, N4BP2L2 / Fold change vs veh, N4BP2L2 / RFU, ARFIP1 / Fold change vs veh, ARFIP1 / RFU, FAM179B / Fold change vs veh, FAM179B / RFU, BCL10 / Fold change vs veh, BCL10 / RFU, UHRF1BP1L / Fold change vs veh, UHRF1BP1L / RFU, BET1 / Fold change vs veh, BET1 / RFU, CNOT2 / Fold change vs veh, CNOT2 / RFU, ZNF268 / Fold change vs veh, ZNF268 / Fold change vs veh, ZNF507 / RFU, DGCR2 / Fold change vs veh, DGCR2 / RFU, WDSUB1 / Fold change vs veh, WDSUB1 / Fold change vs veh, HSP90B1 /// MIR3652 / RFU, ADSS / Fold change vs veh, ADSS / RFU, GK / Fold change vs veh, GK / RFU, ZNF148 / Fold change vs veh, ZNF148 / RFU, TAF9 / Fold change vs veh, TAF9 / RFU, SLC1A5 / Fold change vs veh, SLC1A5 / RFU, SLMO2 / Fold change vs veh, SLMO2 / RFU, ABCC4 / Fold change vs veh, ABCC4 / RFU, LOC101060439 /// RAP1B / Fold change vs veh, LOC101060439 /// RAP1B / RFU, RFX7 / Fold change vs veh, RFX7 / RFU, GTPBP10 / Fold change vs veh, GTPBP10 / RFU, CNEP1R1 / Fold change vs veh, CNEP1R1 / RFU, BIVM-ERCC5 /// ERCC5 / Fold change vs veh, BIVM-ERCC5 /// ERCC5 / RFU, ILF3 / Fold change vs veh, ILF3 / RFU 11762660_at / Fold change /veh 11762660_at / RFU VCAN (11757783_s_at) / Fold change /veh VCAN (11757783_s_at) / RFU DDX43 (11728927_at) / Fold change /veh DDX43 (11728927_at) / RFU KRT8 (11758188_x_at) / Fold change /veh KRT8 (11758188_x_at) / RFU NKD1 (11759106_at) / Fold change /veh NKD1 (11759106_at) / RFU SRD5A1 (11742802_a_at) / Fold change /veh SRD5A1 (11742802_a_at) / RFU TPSAB1 /// TPSB2 (11721975_s_at) / Fold change /veh TPSAB1 /// TPSB2 (11721975_s_at) / RFU GSTM3 (11746129_a_at) / Fold change /veh GSTM3 (11746129_a_at) / RFU IL23R (11737362_x_at) / Fold change /veh IL23R (11737362_x_at) / RFU TMEM51 (11727254_a_at) / Fold change /veh TMEM51 (11727254_a_at) / RFU PIWIL2 (11732686_x_at) / Fold change /veh PIWIL2 (11732686_x_at) / RFU ORM1 (11744905_x_at) / Fold change /veh ORM1 (11744905_x_at) / RFU CCDC152 (11743942_at) / Fold change /veh CCDC152 (11743942_at) / RFU ECM1 (11717891_a_at) / Fold change /veh ECM1 (11717891_a_at) / RFU IL23R (11748794_a_at) / Fold change /veh IL23R (11748794_a_at) / RFU TNFAIP8L3 (11732012_x_at) / Fold change /veh TNFAIP8L3 (11732012_x_at) / RFU MBOAT4 (11741988_at) / Fold change /veh MBOAT4 (11741988_at) / RFU 11764193_at / Fold change /veh 11764193_at / RFU TMEM53 (11763286_at) / Fold change /veh TMEM53 (11763286_at) / RFU MAGEB2 (11727129_at) / Fold change /veh MAGEB2 (11727129_at) / RFU TMEM200A (11744735_a_at) / Fold change /veh TMEM200A (11744735_a_at) / RFU CCDC152 (11751479_a_at) / Fold change /veh CCDC152 (11751479_a_at) / RFU FAM211A (11726209_a_at) / Fold change /veh FAM211A (11726209_a_at) / RFU RGS16 (11746705_a_at) / Fold change /veh RGS16 (11746705_a_at) / RFU VCAN (11755009_s_at) / Fold change /veh VCAN (11755009_s_at) / RFU RHOB (11743442_s_at) / Fold change /veh RHOB (11743442_s_at) / RFU RGS16 (11720943_a_at) / Fold change /veh RGS16 (11720943_a_at) / RFU RGS16 (11720944_at) / Fold change /veh RGS16 (11720944_at) / RFU, VPS4B / Fold change vs veh, VPS4B / RFU, CREB1 / Fold change vs veh, CREB1 / RFU, DNAJC13 / Fold change vs veh, DNAJC13 / RFU, GNAQ / Fold change vs veh, GNAQ / RFU, CDK5R1 / Fold change vs veh, CDK5R1 / RFU, ZRANB3 / Fold change vs veh, ZRANB3 / RFU, CUL4A / Fold change vs veh, CUL4A / RFU, CCNY / Fold change vs veh, CCNY / RFU, UFL1 / Fold change vs veh, UFL1 / RFU, COG3 / Fold change vs veh, COG3 / RFU, DIAPH2 / Fold change vs veh, DIAPH2 / RFU, SKA2 / Fold change vs veh, SKA2 / RFU, AFF3 / Fold change vs veh, AFF3 / RFU, LMF1 / Fold change vs veh, LMF1 / RFU, IPO11 / Fold change vs veh, IPO11 / RFU, DFFB / Fold change vs veh, DFFB / RFU, FOXP1 / Fold change vs veh, FOXP1 / RFU, CARD8 / Fold change vs veh, CARD8 / RFU, STRN3 / Fold change vs veh, STRN3 / RFU, ADK / Fold change vs veh, ADK / RFU, RASSF2 / Fold change vs veh, RASSF2 / RFU, WIPF1 / Fold change vs veh, WIPF1 / RFU, LARP1B / Fold change vs veh, LARP1B / RFU, RASA1 / Fold change vs veh, RASA1 / RFU, RB1 / Fold change vs veh, RB1 / RFU, PPFIA1 / Fold change vs veh, PPFIA1 / RFU, MAT2A / Fold change vs veh, MAT2A / RFU, CCT5 / Fold change vs veh, CCT5 / RFU, WDR92 / Fold change vs veh, WDR92 / RFU, CUX1 / Fold change vs veh, CUX1 / RFU, TTC7A / Fold change vs veh, TTC7A / RFU, TMEM135 / Fold change vs veh, TMEM135 / RFU, DEPTOR / Fold change vs veh, DEPTOR / RFU, CPM / Fold change vs veh, CPM / RFU, DNAJB6 / Fold change vs veh, DNAJB6 / RFU, CACNA2D3 / Fold change vs veh, CACNA2D3 / RFU, DTX4 / Fold change vs veh, DTX4 / RFU, TFCP2 / Fold change vs veh, TFCP2 / RFU, GMCL1 /// GMCL1P1 / Fold change vs veh, GMCL1 /// GMCL1P1 / RFU, AEBP2 / Fold change vs veh, AEBP2 / RFU, SNHG1 /// SNORD22 /// SNORD25 /// SNORD26 /// SNORD27 /// SNORD28 /// SNORD29 /// SNORD31 / Fold change vs veh, SNHG1 /// SNORD22 /// SNORD25 /// SNORD26 /// SNORD27 /// SNORD28 /// SNORD29 /// SNORD31 / Fold change (Aza/veh), C12orf56 (ProbeSet 11735607_a_at) / Fold change (ACY-1035/veh), C12orf56 (ProbeSet 11735607_a_at) / Fold change (Aza/veh), FGFR1OP (ProbeSet 11751329_s_at) / Fold change (ACY-1035/veh), FGFR1OP (ProbeSet 11751329_s_at) / Fold change (Aza/veh), VPS36 (ProbeSet 11739960_a_at) / Fold change (ACY-1035/veh), VPS36 (ProbeSet 11739960_a_at) / RFU SYPL1 (11715823_x_at) / Fold change /veh SYPL1 (11715823_x_at) / RFU IGFBP7 (11715501_s_at) / Fold change /veh IGFBP7 (11715501_s_at) / RFU REEP3 (11722064_at) / Fold change /veh REEP3 (11722064_at) / RFU IGLL1 (11728026_x_at) / Fold change /veh IGLL1 (11728026_x_at): dose or concentration left out as unconfirmed",
  "settings": "MV-4-11 cells, 48 hours",
  "data": [
    {"smiles": "Nc1ccc(-c2cccs2)cc1NC(=O)c1ccc2c(c1)cc(C1CC1)n2CCN1CCOCC1", "note": "[ACY-1035]", "values": [
      {"measurement": "Fold change /veh MAGEB2 (11727129_at)", "result": 0.99}
    ]}
  ]
}
